# US12351580B2, “NLRP3 modulators” (Innate Tumor Immunity, Inc., priority 2017, dated 2025)
# Where a name gives a salt, the structure may show the parent alone.
# Target: T1, TLR8 (Homo sapiens, UniProt Q9NR97)
# T1 construct: host or cells: HEK-Blue cells (human HEK) co-expressing TLR8 and an NF-kB/AP1-inducible SEAP reporter
# T1 sequence (Q9NR97 27-1041): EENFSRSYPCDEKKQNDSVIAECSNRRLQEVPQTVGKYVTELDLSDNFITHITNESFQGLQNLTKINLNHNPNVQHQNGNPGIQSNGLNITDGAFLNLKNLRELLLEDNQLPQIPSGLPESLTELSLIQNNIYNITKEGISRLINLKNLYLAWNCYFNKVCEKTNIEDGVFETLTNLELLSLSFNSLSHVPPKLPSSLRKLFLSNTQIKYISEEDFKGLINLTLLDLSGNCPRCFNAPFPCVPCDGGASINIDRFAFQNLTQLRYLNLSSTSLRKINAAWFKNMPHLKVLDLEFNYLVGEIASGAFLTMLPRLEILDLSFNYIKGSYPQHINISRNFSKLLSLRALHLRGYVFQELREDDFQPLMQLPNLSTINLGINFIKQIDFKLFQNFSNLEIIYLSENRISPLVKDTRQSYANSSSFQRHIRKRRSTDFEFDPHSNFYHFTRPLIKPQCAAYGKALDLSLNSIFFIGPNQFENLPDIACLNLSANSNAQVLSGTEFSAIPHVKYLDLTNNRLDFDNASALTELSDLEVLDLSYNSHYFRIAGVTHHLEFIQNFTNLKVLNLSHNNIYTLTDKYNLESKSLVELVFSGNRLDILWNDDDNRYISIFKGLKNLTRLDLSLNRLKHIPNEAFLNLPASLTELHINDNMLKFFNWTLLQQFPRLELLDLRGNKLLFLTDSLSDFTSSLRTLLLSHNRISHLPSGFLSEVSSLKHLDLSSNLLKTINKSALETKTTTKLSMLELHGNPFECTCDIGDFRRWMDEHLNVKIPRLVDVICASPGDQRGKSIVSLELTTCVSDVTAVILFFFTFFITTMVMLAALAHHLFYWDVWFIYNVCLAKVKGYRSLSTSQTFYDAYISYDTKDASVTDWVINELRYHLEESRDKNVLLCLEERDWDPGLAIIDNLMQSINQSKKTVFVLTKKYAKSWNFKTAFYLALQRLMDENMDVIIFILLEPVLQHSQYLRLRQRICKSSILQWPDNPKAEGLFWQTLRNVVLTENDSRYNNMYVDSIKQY
# Assay: In vitro human TLR8 binding reporter assay (HEK-Blue, NF-kB/AP1-inducible SEAP)
# Assay type: cell-based
# Settings: activity range symbols
# In short: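 Reporter cells are plated at 15,000 per well and rested 24 h. Next day, test compounds or DMSO are dispensed, followed by 18 h incubation at 37 °C, 5% CO2.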
row,Structure (SMILES),EC50 [µM]
1,"CCNCc1nc2c(N)nc3cc(-c4cc[nH]n4)ccc3c2[nH]1 [Compound 101, 2-[(Ethylamino)methyl]-7-(1H-pyrazol-3-yl)-1H-imidazo[4,5-c]quinolin-4-amine hydrochloride]",> 100
2,"CC(=O)N(C)Cc1nc2c(N)nc3cc(-n4cccn4)ccc3c2[nH]1 [Compound 102, N-((4-Amino-7-(1H-pyrazol-1-yl)-1H-imidazo[4,5-c]quinolin-2-yl)methyl)-N-methylacetamide]",> 100
3,CN(Cc1nc2c(N)nc3cc(-n4cccn4)ccc3c2[nH]1)S(C)(=O)=O [Compound 119],> 100
4,CN(Cc1nc2c(N)nc3cc(-c4cc[nH]n4)ccc3c2[nH]1)C(=O)C1CC1 [Compound 120],> 100
5,CCN(Cc1nc2c(N)nc3cc(-c4cc[nH]n4)ccc3c2n1C)C(C)=O [Compound 121],> 100
6,CCC(=O)N(C)Cc1nc2c(N)nc3cc(-c4cc[nH]n4)ccc3c2[nH]1 [Compound 122],> 100
7,CCN(Cc1nc2c(N)nc3cc(-c4cc[nH]n4)ccc3c2[nH]1)S(C)(=O)=O [Compound 124],> 100
8,CCC(=O)N(CC)Cc1nc2c(N)nc3cc(-c4cc[nH]n4)ccc3c2[nH]1 [Compound 125],> 100
9,CCN(Cc1nc2c(N)nc3cc(-c4cc[nH]n4)ccc3c2[nH]1)C(=O)NC [Compound 128],> 100
10,CC(=O)N(C)Cc1nc2c(N)nc3cc(-c4cc[nH]n4)ccc3c2[nH]1 [Compound 129],> 100
11,CCN(Cc1nc2c(N)nc3cc(-n4cccn4)ccc3c2[nH]1)C(N)=O [Compound 130],> 100
12,NCc1nc2c(N)nc3cc(-c4cc[nH]n4)ccc3c2[nH]1 [Compound 131],> 100
13,CCN(Cc1nc2c(N)nc3cc(-n4nccn4)ccc3c2[nH]1)C(C)=O [Compound 132],> 100
14,CC(c1nc2c(N)nc3cc(-c4cccnc4)ccc3c2[nH]1)N1CCCC1=O (centres unmarked) [Compound 138],> 100
15,CC(=O)N(Cc1nc2c(N)nc3cc(-c4cc[nH]n4)ccc3c2[nH]1)C(C)C [Compound 140],> 100
16,Nc1nc2ccc(Cl)cc2c2[nH]c(CN3CCCC3=O)nc12 [Compound 141],> 100
17,CC(C)(C)OC(=O)NCc1nc2c(N)nc3cc(-c4cc[nH]n4)ccc3c2[nH]1 [Compound 142],> 100
18,Nc1nc2cc(Cl)ccc2c2[nH]c(CN3CCCC3=O)nc12 [Compound 143],> 100
19,Nc1nc2cc(-c3ccc(Cl)nc3)ccc2c2[nH]c(CN3CCCC3=O)nc12 [Compound 153],> 100
20,CCNCc1nc2c(N)nc3cc(OC)ccc3c2[nH]1 [Compound 154],20 to 100
21,CCN(Cc1nc2c(N)nc3cc(-c4ncc[nH]4)ccc3c2[nH]1)C(=O)OC(C)(C)C [Compound 155],> 100
22,Nc1nc2cc(-n3ncc4ccccc43)ccc2c2[nH]c(CN3CCCC3=O)nc12 [Compound 157],20 to 100

# Next, values leading:
row,EC50 [µM],Structure (SMILES)
1,> 100,"CCN(Cc1nc2c(N)nc3cc(OC)ccc3c2[nH]1)C(C)=O [Compound 158, N-((4-Amino-7-methoxy-1H-imidazo[4,5-c]quinolin-2-yl)methyl)-N-ethylacetamide]"
2,> 100,CCN(Cc1nc2c(N)nc3cc(Cl)c(Cl)cc3c2[nH]1)C(C)=O [Compound 159]
3,> 100,CCNCc1nc2c(N)nc3cc(-c4ncc[nH]4)ccc3c2[nH]1 [Compound 162]
4,> 100,"CCN(Cc1nc2c(N)nc3cc(-c4cc[nH]n4)ccc3c2[nH]1)CC(C)C [Compound 453, 2-{[ethyl(2-methylpropyl)amino]methyl}-7-(1H-pyrazol-3-yl)-1H-imidazo[4,5-c]quinolin-4-amine]"
5,> 100,"CCN(CC)C(=O)N(CC)Cc1nc2c(N)nc3cc(-c4cc[nH]n4)ccc3c2[nH]1 [Compound 454, 1-{[4-amino-7-(1H-pyrazol-3-yl)-1H-imidazo[4,5-c]quinolin-2-yl]methyl}-1,3,3-triethylurea]"
6,> 100,"CCN(Cc1nc2c(N)nc3cc(-c4cc[nH]n4)ccc3c2[nH]1)C(=O)N1CCOCC1 [Compound 455, N-{[4-amino-7-(1H-pyrazol-3-yl)-1H-imidazo[4,5-c]quinolin-2-yl]methyl}-N-ethylmorpholine-4-carboxamide]"
7,> 100,"CCN(Cc1nc2c(N)nc3cc(-c4cc[nH]n4)ccc3c2[nH]1)C(=O)NC(C)(C)C [Compound 456, 1-{[4-amino-7-(1H-pyrazol-3-yl)-1H-imidazo[4,5-c]quinolin-2-yl]methyl}-3-tert-butyl-1-ethylurea]"
8,> 100,"CCNC(=O)N(CC)Cc1nc2c(N)nc3cc(-c4cc[nH]n4)ccc3c2[nH]1 [Compound 457, 1-{[4-amino-7-(1H-pyrazol-3-yl)-1H-imidazo[4,5-c]quinolin-2-yl]methyl}-1,3-diethylurea]"
9,> 100,"CCN(Cc1nc2c(N)nc3cc(-c4cc[nH]n4)ccc3c2[nH]1)S(=O)(=O)N(C)C [Compound 458, 2-{[(dimethylsulfamoyl)(ethyl)amino]methyl}-7-(1H-pyrazol-3-yl)-1H-imidazo[4,5-c]quinolin-4-amine]"
10,> 100,"CCN(Cc1nc2c(N)nc3cc(-c4cc[nH]n4)ccc3c2[nH]1)S(=O)(=O)C(C)C [Compound 459, N-{[4-amino-7-(1H-pyrazol-3-yl)-1H-imidazo[4,5-c]quinolin-2-yl]methyl}-N-ethylpropane-2-sulfonamide]"
11,> 100,"CCNCc1nc2c(N)nc3cc(-c4ccn[nH]4)ccc3c2n1CCO [Compound 462, 2-[4-Amino-2-[(ethylamino)methyl]-7-(1H-pyrazol-5-yl)-1H-imidazo[4,5-c]quinolin-1-yl]ethan-1-ol]"
12,> 100,"CCn1c(CN2CCCC2=O)nc2c(N)nc3cc(-c4cccs4)ccc3c21 [Compound 463, 1-{[4-amino-1-ethyl-7-(thiophen-2-yl)-1H-imidazo[4,5-c]quinolin-2-yl]methyl}pyrrolidin-2-one]"
13,> 100,"CCNCc1nc2c(N)nc3cc(-c4ccn[nH]4)ccc3c2n1CC [Compound 464, 1-ethyl-2-[(ethylamino)methyl]-7-(1H-pyrazol-5-yl)-1H-imidazo[4,5-c]quinolin-4-amine]"
14,> 100,"CCn1c(CN2CCCC2=O)nc2c(N)nc3cc(-n4cccn4)ccc3c21 [Compound 465, 1-{[4-amino-1-ethyl-7-(1H-pyrazol-1-yl)-1H-imidazo[4,5-c]quinolin-2-yl]methyl}pyrrolidin-2-one]"
15,> 100,"CCn1c(CN2CCCC2=O)nc2c(N)nc3cc(-c4ccn[nH]4)ccc3c21 [Compound 466, 1-{[4-amino-1-ethyl-7-(1H-pyrazol-5-yl)-1H-imidazo[4,5-c]quinolin-2-yl]methyl}pyrrolidin-2-one]"
16,> 100,"CCNCc1nc2c(N)nc3cc(-n4cccn4)ccc3c2n1CC [Compound 467, 1-ethyl-2-((ethylamino)methyl)-7-(1H-pyrazol-1-yl)-1H-imidazo[4,5-c]quinolin-4-amine]"
17,> 100,"CCNCc1nc2c(N)nc3cc(-c4cccs4)ccc3c2n1CC [Compound 468, 1-ethyl-2-[(ethylamino)methyl]-7-(thiophen-2-yl)-1H-imidazo[4,5-c]quinolin-4-amine]"
18,> 100,"Nc1nc2cc(-c3cccs3)ccc2c2c1nc(CN1CCCC1=O)n2CCO [Compound 469, 1-{[4-amino-1-(2-hydroxyethyl)-7-(thiophen-2-yl)-1H-imidazo[4,5-c]quinolin-2-yl]methyl}pyrrolidin-2-one]"
19,> 100,"CCC(=O)N(CC)Cc1nc2c(N)nc3cc(-c4cccs4)ccc3c2n1CCO [Compound 470, N-{[4-amino-1-(2-hydroxyethyl)-7-(thiophen-2-yl)-1H-imidazo[4,5-c]quinolin-2-yl]methyl}-N-ethylpropanamide]"
20,> 100,"CCNCc1nc2c(N)nc3cc(-c4cccs4)ccc3c2n1CCO [Compound 471, 2-{4-amino-2-[(ethylamino)methyl]-7-(thiophen-2-yl)-1H-imidazo[4,5-c]quinolin-1-yl}ethan-1-ol]"
21,> 100,"CCN(Cc1nc2c(N)nc3cc(-c4cccs4)ccc3c2n1CC)C(C)=O [Compound 472, N-{[4-amino-1-ethyl-7-(thiophen-2-yl)-1H-imidazo[4,5-c]quinolin-2-yl]methyl}-N-ethylacetamide]"

# Same assay, conditions: numeric bounds
row,EC50 [µM],Structure (SMILES)
1,> 62,"CCCS(=O)(=O)N(CC)Cc1nc2c(N)nc3cc(-c4cc[nH]n4)ccc3c2[nH]1 [Compound 460, N-{[4-amino-7-(1H-pyrazol-3-yl)-1H-imidazo[4,5-c]quinolin-2-yl]methyl}-N-ethylpropane-1-sulfonamide]"
